# Assay results as given in US11370774B2, “Substituted benzofuran, benzopyrrole, benzothiophene, and structurally related complement inhibitors” (BioCryst Pharmaceuticals, Inc., priority 2018, dated 2022).
# Target: Factor D (Homo sapiens (Human), UniProt P00746)
# Assay: Factor D esterolytic assay (Z-Lys-SBzl substrate, DTNB, 405 nm)
# Format: biochemical
# Settings: Z-Lys-SBzl 1.29 mM, pH 7.5, 10% DMSO, tested a minimum of three times, read-out: Measured Ki (IC50) Value for Compounds: IC50
# Description: The IC50 value of a compound (i.e., the concentration of the compound that inhibits 50% of the enzymatic activity) was calculated according to the procedure reported in U.S. Pat. No. 6,653,340 B1, e.g., column 74 (incorporated by reference).
# Specifically, the compounds were dissolved in a stock solution of DMSO at 10.0 or 100 mM. A portion of this stock solution was added to assay buffer in a final volume of 50 μL. Controls included buffer alone and enzyme solutions to which DMSO was added. Substrate was added to the reaction wells immediately or after incubation at room temperature. The reaction rates were measured spectrophotometrically by the generation of product at 405 nm for 600 sec. Background absorbance at 690 nm was measured and subtracted from the absorbance at 405 nm for each well.
# The reaction rate for enzyme alone was compared to the rate of enzyme in the presence of inhibitor and the percent inhibition was calculated as shown below: Percent Inhibition=[Rate without inhibitor−Rate with inhibitor)/(Rate without inhibitor)]×100 Factor D Esterolytic Assay:
# An established esterolytic assay for the measurement of Factor D activity and inhibition of Factor D activity was used (Kam, C. M.; McRae, B. J.; Harper, J. W.; Niemann, M. A.; Volanakis, J. E.; Powers, J. C. Human complement proteins D, C2, and B Active site mapping with peptide thioester substrates. J Biol. Chem. 1987, 262, 3444-3451). For this assay Z-Lys-SBzl, 1.29 mM (Kim, S.; Narayana, S. V. L; Volanakis, J. E. Mutational analysis of the substrate binding site of human complement Factor D. Biochemistry. 1994, 33, 14393-14399.) was used as the substrate for Factor D ([…]). Hydrolysis of this compound by Factor D liberated a free sulfhydryl group which is then reacted with 5,5′-dithiobis(2nitrobenzoic acid) producing an intense yellow color (Habeeb, A. F. S. A. Reaction of protein sulfhydryl groups with Ellman's Reagent. Methods in Enzymol. 1976, 25, 457-464). The assays were performed in 96 well microtiter plates and rates of hydrolysis were monitored at 405 nm on a Biotek Synergy H1 plate reader. Hydrolysis rates were reported as change in mOD/min. The assay was conducted in 100 mM HEPES, 500 mM NaCl, pH 7.5 containing 10% DMSO in a final volume of 50 μL per well.
# An IC50, a compound concentration which inhibits 50% of the enzymatic activity, was calculated. Compounds in the examples were tested a minimum of three times.
# Chain of Factor D (P00746 26-253): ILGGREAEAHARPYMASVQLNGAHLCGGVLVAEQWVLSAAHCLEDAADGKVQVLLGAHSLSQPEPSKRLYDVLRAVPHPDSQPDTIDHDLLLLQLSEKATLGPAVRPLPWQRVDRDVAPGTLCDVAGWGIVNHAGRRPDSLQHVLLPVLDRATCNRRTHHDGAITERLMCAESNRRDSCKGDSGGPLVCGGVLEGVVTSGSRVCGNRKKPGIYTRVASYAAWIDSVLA
row,IC50 [nM],Compound
1,< 1000,"NCc1cccc(-c2cc(C(=O)Nc3ccccc3CC(=O)O)cc3nn(CC4CC4)cc23)c1 [Compound 11b, 2-(2-(4-(3-(aminomethyl)phenyl)-2-(cyclopropylmethyl)-2H-indazole-6-carboxamido)phenyl)acetic acid]"
2,< 1000,"NCc1nccc(-c2cc(COc3ccccc3CC(=O)O)cc3[nH]ccc23)c1F [Compound 12c, 2-(2-((4-(2-(aminomethyl)-3-fluoropyridin-4-yl)-1H-indol-6-yl)methoxy)phenyl)acetic acid]"
3,1000 to 10000,"NCc1cccc(-c2cc(C(=O)Nc3ccccc3CC(=O)O)cc3cccnc23)c1 [Compound 13c, 2-(2-(8-(3-(aminomethyl)phenyl)quinoline-6-carboxamido)phenyl)acetic acid]"
4,> 10000,"CCOC(=O)Cc1ccccc1NC(=O)c1cc(-c2cccc(CN)c2)c2cc[nH]c2n1 [Compound 14c, ethyl 2-(2-(4-(3-(aminomethyl)phenyl)-1H-pyrrolo[2,3-b]pyridine-6-carboxamido)phenyl)acetate]"
5,1000 to 10000,"NCc1cccc(-c2cc(C(=O)Nc3ccccc3CC(=O)O)nc3[nH]ccc23)c1 [Compound 14d, 2-(2-(4-(3-(aminomethyl)phenyl)-1H-pyrrolo[2,3-b]pyridine-6-carboxamido)phenyl)acetic acid]"
6,> 10000,"CCOC(=O)Cc1ccccc1NC(=O)c1cc(-c2cccc(CN)c2)c2occc2c1 [Compound 15c, ethyl 2-(2-(7-(3-(aminomethyl)phenyl)benzofuran-5-carboxamido)phenyl)acetate]"
7,< 1000,"NCc1cccc(-c2cc(C(=O)Nc3ccccc3CC(=O)O)cc3ccoc23)c1 [Compound 15d, 2-(2-(7-(3-(aminomethyl)phenyl)benzofuran-5-carboxamido)phenyl)acetic acid]"
8,< 1000,"NCc1cccc(-c2nc(C(=O)Nc3ccccc3CC(=O)O)nc3c2ccn3CC2CC2)c1 [Compound 16i, 2-(2-(4-(3-(aminomethyl)phenyl)-7-(cyclopropylmethyl)-7H-pyrrolo[2,3-d]pyrimidine-2-carboxamido)phenyl)acetic acid]"
9,> 10000,"NCc1cccc(-c2cc(C(=O)Nc3ccccc3CC(=O)O)cn3cnnc23)c1 [Compound 17c, 2-(2-(8-(3-(aminomethyl)phenyl)-[1,2,4]triazolo[4,3-a]pyridine-6-carboxamido)phenyl)acetic acid]"
10,< 1000,"NCc1cccc(-c2cc(C(=O)Nc3ccccc3CC(=O)O)cc3ccccc23)c1 [Compound 18f, 2-(2-(4-(3-(aminomethyl)phenyl)-2-naphthamido)phenyl)acetic acid]"
11,< 1000,"NCc1cc(F)cc(-c2cc(C(=O)Nc3ccccc3CC(=O)O)cc3[nH]ccc23)c1 [Compound 19c, 2-(2-(4-(3-(aminomethyl)-5-fluorophenyl)-1H-indole-6-carboxamido)phenyl)acetic acid]"
12,> 10000,"NCc1cccc(-c2cc(C(=O)Nc3ccccc3CC(=O)O)c3ncnn3c2)c1 [Compound 20e, 2-(2-(6-(3-(aminomethyl)phenyl)-[1,2,4]triazolo[1,5-a]pyridine-8-carboxamido)phenyl)acetic acid]"
13,< 1000,"NCc1cc(F)cc(-c2nc(C(=O)Nc3ccccc3CC(=O)O)c3cccn3n2)c1 [Compound 21d, 2-(2-(2-(3-(aminomethyl)-5-fluorophenyl)pyrrolo[2,1-f][1,2,4]triazine-4-carboxamido)phenyl)acetic acid]"
14,< 1000,"NCc1cccc(-c2cc(COc3ccccc3CC(=O)O)cc3ccoc23)c1 [Compound 23e, 2-(2-((7-(3-(aminomethyl)phenyl)benzofuran-5-yl)methoxy)phenyl)acetic acid]"
15,< 1000,"NCc1cccc(-c2cc(COc3ccccc3CC(=O)O)cc3oc(Cl)cc23)c1F [Compound 24b, 2-(2-((4-(3-(aminomethyl)-2-fluorophenyl)-2-chlorobenzofuran-6-yl)methoxy)phenyl)acetic acid]"
16,1000 to 10000,"CCOC(=O)Cc1ccccc1OCc1nc(-c2cccc(CN)c2)nn2cccc12 [Compound 25c, ethyl 2-(2-((2-(3-(aminomethyl)phenyl)pyrrolo[2,1-f][1,2,4]triazin-4-yl)methoxy)phenyl)acetate]"

row,IC50 [nM],Compound
1,< 1000,"NCc1cccc(-c2nc(COc3ccccc3CC(=O)O)nc3c2ccn3CC2CC2)c1 [Compound 26d, 2-(2-((4-(3-(aminomethyl)phenyl)-7-(cyclopropylmethyl)-7H-pyrrolo[2,3-d]pyrimidin-2-yl)methoxy)phenyl)acetic acid]"
2,> 10000,"NCc1cccc(-c2cc(C(=O)Nc3ccccc3CC(=O)O)c3nccn3n2)c1 [Compound 27f, 2-(2-(6-(3-(aminomethyl)phenyl)imidazo[1,2-b]pyridazine-8-carboxamido)phenyl)acetic acid]"
3,< 1000,"NCc1cccc(-c2nc(C(=O)Nc3ccccc3CC(=O)O)cc3ccoc23)c1 [Compound 28d, 2-(2-(7-(3-(aminomethyl)phenyl)furo[2,3-c]pyridine-5-carboxamido)phenyl)acetic acid]"
4,1000 to 10000,"C[C@H](N)c1cccc(-c2nc(C(=O)Nc3ccccc3CC(=O)O)c3cccn3n2)c1 [Compound 29d, (S)-2-(2-(2-(3-(1-aminoethyl)phenyl)pyrrolo[2,1-f][1,2,4]triazine-4-carboxamido)phenyl)acetic acid]"
5,> 10000,"Cc1nc2cc(C(=O)Nc3ccccc3CC(=O)O)cc(-c3cccc(CN)c3)c2n1C [Compound 30d, 2-(2-(7-(3-(aminomethyl)phenyl)-1,2-dimethyl-1H-benzo[d]imidazole-5-carboxamido)phenyl)acetic acid]"
6,< 1000,"NCc1cccc(-c2nc(C(=O)Nc3ccccc3CC(=O)O)nc3ccsc23)c1 [Compound 31f, 2-(2-(4-(3-(aminomethyl)phenyl)thieno[3,2-d]pyrimidine-2-carboxamido)phenyl)acetic acid]"
7,< 1000,"NCc1cccc(-c2nc(C(=O)Nc3ccccc3CC(=O)O)nc3sccc23)c1 [Compound 32h, 2-(2-(4-(3-(aminomethyl)phenyl)thieno[2,3-d]pyrimidine-2-carboxamido)phenyl)acetic acid]"
8,< 1000,"C[C@@H](N)c1cccc(-c2nc(C(=O)Nc3ccccc3CC(=O)O)c3cccn3n2)c1F [Compound 33f, (R)-2-(2-(2-(3-(1-aminoethyl)-2-fluorophenyl)pyrrolo[2,1-f][1,2,4]triazine-4-carboxamido)phenyl)acetic acid]"
9,< 1000,"NCc1cccc(-c2nc(C(=O)Nc3ccccc3CC(=O)O)c3cccn3n2)c1F [Compound 34f, 2-(2-(2-(3-(aminomethyl)-2-fluorophenyl)pyrrolo[2,1-f][1,2,4]triazine-4-carboxamido)phenyl)acetic acid]"
10,1000 to 10000,"NCc1cccc(-c2nc(C(=O)Nc3ccccc3CC(=O)O)cc3ccncc23)c1 [Compound 35f, 2-(2-(1-(3-(aminomethyl)phenyl)-2,7-naphthyridine-3-carboxamido)phenyl)acetic acid]"
11,< 1000,"NCc1cccc(-c2nc(C(=O)Nc3ccccc3CC(=O)O)nc3ccoc23)c1 [Compound 36h, 2-(2-(4-(3-(aminomethyl)phenyl)furo[3,2-d]pyrimidine-2-carboxamido)phenyl)acetic acid]"
12,< 1000,"NCc1cccc(-c2cc(C(=O)Nc3ccccc3CC(=O)O)cc3[nH]ccc23)c1F [Compound 37c, 2-(2-(4-(3-(aminomethyl)-2-fluorophenyl)-1H-indole-6-carboxamido)phenyl)acetic acid]"
13,< 1000,"NCc1coc2c(-c3cc(COc4ccccc4CC(=O)O)cc4ccoc34)cccc12 [Compound 38f, 2-(2-((3′-(aminomethyl)-[7,7′-bibenzofuran]-5-yl)methoxy)phenyl)acetic acid]"
14,< 1000,"Cc1ccc(CC(=O)O)c(NC(=O)c2nc(-c3cccc(CN)c3)nn3cccc23)c1 [Compound 39d, 2-(2-(2-(3-(aminomethyl)phenyl)pyrrolo[2,1-f][1,2,4]triazine-4-carboxamido)-4-methylphenyl)acetic acid]"
15,< 1000,"Cc1ccc(S(=O)(=O)n2ccc3c(-c4cccc(CN)c4)cc(COc4ccccc4CC(=O)O)cc32)cc1 [Compound 40e, 2-(2-((4-(3-(aminomethyl)phenyl)-1-tosyl-1H-indol-6-yl)methoxy)phenyl)acetic acid]"
16,< 1000,"NCc1cccc(-c2nc(C(=O)Nc3sccc3CC(=O)O)cc3ccoc23)c1 [Compound 41d, 2-(2-(7-(3-(aminomethyl)phenyl)furo[2,3-c]pyridine-5-carboxamido)thiophen-3-yl)acetic acid]"
